Measurements from US11731977B2, “SGC stimulators” (Cyclerion Therapeutics, Inc., priority 2016, dated 2023).
Read-outs that look alike come from different tables or passages of the source. Marks after values point to notes of the source that are not given here.

Legend:
cGMP in mouse brain = assay: Compound-induced cGMP in mouse brain (Example 9); assay type: in vivo; details: 30 min after dosing
Protocol: Objective. To determine the effect of different doses of a compound of the invention in cGMP response and compound concentration in different areas of the mouse brain (cortex, hippocampus, cerebellum and striatum) and compound concentration in blood
Protocol. Mice (n=7-8 per experimental condition) were dosed PO with vehicle (1% hydroxypropyl methyl cellulose, 0.2% Tween80, 0.5% methyl cellulose) or 0.3, 1, 3 or 10 mg/Kg of Compound I-1 prepared in vehicle. Thirty minutes after dosing, under isoflurane anesthesia, the mouse was decapitated and the brain was removed and placed into an ice-cold petri dish containing slushy dissection solution (saturated with 95% O2·5% CO2). Using an ice-cold spatula, the brain was transferred to mouse brain matrix with coronal spacing for slicing at 1 mm intervals, as shown in FIG. 5 (not to scale, just a scheme).
The sliced brain was transferred back into petri dish containing slushy dissection solution with IBMX 0.5 mM (saturated with 95% O2/5% CO2). The dorsal striatum is dissected first, followed by the hippocampus second, followed by the medial prefrontal cortex third, and lastly, the cerebellum fourth. After each region is dissected the dissected tissue was immediately placed into an eppendorf that was placed on dry ice for the previous 30 minutes. Small pieces of tissue froze very fast, within 10 seconds approximately. After all regions were placed in an eppendorf, the eppendorfs were then snap frozen by immersion into liquid nitrogen. The whole blood sample was collected from the trunk area using mitra tips. Tissue samples were stored in the −80° C. and mitra tips at room temperature. cGMP and compound levels in brain and blood were determined by LC/MS; protein quantification of brain samples was determined using BCA protein assay kit.

[1] = system: cAMP response element-binding protein (CREB); assay: pCREB phosphorylation in rat primary neurons (Example 12); assay type: cell-based; details: Primary neuron, 10 μM DETA-NONOate
Source text: Objective. To assess the ability of Compound I-1 to activate cAMP response element-binding protein (CREB) in rat primary neurons. CREB is a cellular transcription factor. It binds to DNA sequences called cAMP response elements (CRE), and regulates transcription of the downstream genes (See Bourtchuladze R, et al., Cell 1994; 79 (1): 59-68). […] CREB proteins are activated by phosphorylation of Serine 133 by various kinases, including cAMP-dependent protein kinase or Protein Kinase A (PKA), cGMP-dependent protein kinase or Protein Kinase G (PKG), and Ca2+/calmodulin-dependent protein kinases. (See Shaywitz A J and Greenberg M E, Annual Review of Biochemistry 1999; 68 (1): 821-861 and Wong J C, et al., J Cell Biochem 2012: 113(11):3587-98). Stimulation of CREB could have therapeutic benefits for diseases in which cognition, neuronal plasticity, and or neuronal function is impaired.
Compounds. Compound I-1 was dissolved in DMSO as a 10 mM solution and stored at −20° C. […]
Assay Conditions. […] Medium was removed and cell were lysed and assay was performed according to Cisbio protocol (phospho-CREB (Ser133) catalog #64CREPEG) and the plate was read using Envision instrument (PerkinElmer).
Data Analysis. Data were analyzed with a 4-parameter fit (log(agonist) vs. response—variable slope) using GraphPad Prism Software v.7. […]

rats = assay: Acute and tonic pain: healthy rats, paw pressure test (Example 13); details: Compound I-1 p.o. 10 mg/kg, 120 minutes after treatment
Protocol: Paw Pressure Test. Static mechanical hyperalgesia is measured. This test requires the application of an increasing pressure on the hind paws between a flat surface and a blunt pointer. To evaluate the analgesic action of a compound, one hind paw of the animal was inflamed by an injection or injured by ligation, while the other hind paw was not injured or inflamed. The apparatus exerted a steadily increasing force on the hind paws. The reaction threshold was determined as the pressure (g) required to elicit paw withdrawal and/or vocalization. The animals were gently handled by the experimenter and static mechanical hyperalgesia were assessed two times for both hind paws.
Testing: 120 minutes after treatment. N=4/model/test. Results are expressed for each group as a percentage of activity calculated from the mean value of the vehicle-treated animals and compared to naïve animals, control paw, or cut-off value, depending on the test.

## Fc1ccccc1Cc1nc(-c2nc(C(F)(F)F)n[nH]2)cn2ccnc12 [Compound I-1, 8-(2-fluorobenzyl)-6-(3-(trifluoromethyl)-1H-1,2,4-triazol-5-yl)imidazo[1,2-a]pyrazine]
cGMP in mouse brain; 0.3 MPK PO
  CEREBELLUM nM cGMP/μg protein: 0.3199 nM cGMP/μg protein
  CORTEX nM cGMP/μg protein: 0.07761 nM cGMP/μg protein
  Hippocampus nM cGMP/μg protein: 0.04255 nM cGMP/μg protein
  STRIATUM nM cGMP/μg protein: 0.02261 nM cGMP/μg protein
cGMP in mouse brain; 1 MPK PO
  CEREBELLUM nM cGMP/μg protein: 0.4577 nM cGMP/μg protein
  CORTEX nM cGMP/μg protein: 0.08064 nM cGMP/μg protein
  Hippocampus nM cGMP/μg protein: 0.04302 nM cGMP/μg protein
  STRIATUM nM cGMP/μg protein: 0.03124 nM cGMP/μg protein
cGMP in mouse brain; 3 MPK PO
  CEREBELLUM nM cGMP/μg protein: 0.7524 nM cGMP/μg protein
  CORTEX nM cGMP/μg protein: 0.1081 nM cGMP/μg protein
  Hippocampus nM cGMP/μg protein: 0.0519 nM cGMP/μg protein
  STRIATUM nM cGMP/μg protein: 0.03719 nM cGMP/μg protein
cGMP in mouse brain; 10 MPK PO
  CEREBELLUM nM cGMP/μg protein: 1.796**** nM cGMP/μg protein
  CORTEX nM cGMP/μg protein: 0.1734* nM cGMP/μg protein
  Hippocampus nM cGMP/μg protein: 0.1171** nM cGMP/μg protein
  STRIATUM nM cGMP/μg protein: 0.04612* nM cGMP/μg protein
[1]; read-out: 95% confidence interval of EC50, phosphorylation of CREB at Ser133
  EC50: 0.5 to 17.8 nM
[1]; 0.5 h, 30 min, read-out: EC50, phosphorylation of CREB at Ser133
  EC50: 3 nM
rats
  % of activity vs. vehicle: −6%
